# System: PBMCs infected with VSV-G pseudotyped HIV virus (VSV-G/pNLG1-P2A-ΔEnv)
# Test: cells
# Assay type: cell-based
# Settings: Homo sapiens, PBMC, read-out: TACK EC50
row,SMILES,EC50
1,"CC(F)(F)[C@@]1(C#CC2CC2)NC(=O)Nc2cc(Cc3ccc(S(N)(=O)=O)cc3)ccc21 (single isomer, unassigned) [Example 20]",115 nM
2,"CN1C(=O)Nc2cc(Cc3ccnc(N)n3)c(Cl)cc2[C@@]1(C#CC1CC1)C(F)(F)F (single isomer, unassigned) [Example 30]",64.7 nM
3,"CN1C(=O)Nc2cc(Cc3ccnc(N)n3)c(F)cc2[C@@]1(C#CC1CC1)C(F)(F)F (single isomer, unassigned) [Example 40]",41.6 nM
4,"Cc1nc(C)c(Cc2cc3c(cc2Cl)[C@@](C#CC2CC2)(C(F)(F)F)NC(=O)N3)c(=O)[nH]1 (single isomer, unassigned) [Example 62B]",68.7 nM
5,"Cc1ccc(Cc2ccc3c(c2)NC(=O)N[C@]3(C#CC2CC2)C(F)(F)F)c(=O)[nH]1 [Example 1, (S)-4-(cyclopropylethynyl)-7-((6-methyl-2-oxo-1,2-dihydropyridin-3-yl)methyl)-4-(trifluoromethyl)-3,4-dihydroquinazolin-2(1H)-one]",120 nM
6,"Cc1cc[nH]c(=O)c1Cc1ccc2c(c1)NC(=O)N[C@]2(C#CC1CC1)C(F)(F)F [Example 2, (S)-4-(cyclopropylethynyl)-7-((4-methyl-2-oxo-1,2-dihydropyridin-3-yl)methyl)-4-(trifluoromethyl)-3,4-dihydroquinazolin-2(1H)-one]",132 nM
7,"O=C1Nc2cc(Cc3ccc[nH]c3=O)ccc2[C@@](C#CC2CC2)(C(F)(F)F)N1 [Example 3, (S)-4-(cyclopropylethynyl)-7-((2-oxo-1,2-dihydropyridin-3-yl)-methyl)-4-(trifluoromethyl)-3,4-dihydroquinazolin-2(1H)-one]",237 nM
8,"Cn1cc(Cc2ccc3c(c2)NC(=O)N[C@]3(C#CC2CC2)C(F)(F)F)ccc1=O [Example 4, (S)-4-(cyclopropylethynyl)-7-((1-methyl-6-oxo-1,6-dihydropyridin-3-yl)methyl)-4-(trifluoromethyl)-3,4-dihydroquinazolin-2(1H)-one]",148 nM
9,"Cn1ccc(Cc2ccc3c(c2)NC(=O)N[C@]3(C#CC2CC2)C(F)(F)F)cc1=O [Example 5, (S)-4-(cyclopropylethynyl)-7-((1-methyl-2-oxo-1,2-dihydropyridin-4-yl)methyl)-4-(trifluoromethyl)-3,4-dihydroquinazolin-2(1H)-one]",160 nM
10,"NS(=O)(=O)c1ccc(Cc2ccc3c(c2)NC(=O)N[C@]3(C#CC2CC2)C(F)(F)F)c(F)c1 [Example 6, (S)-4-((4-(cyclopropylethynyl)-2-oxo-4-(trifluoromethyl)-1,2,3,4-tetrahydroquinazolin-7-yl)methyl)-3-fluorobenzenesulfonamide]",284 nM
11,Nc1cc(Cc2ccc3c(c2)NC(=O)N[C@]3(C#CC2CC2)C(F)(F)F)ccc1S(N)(=O)=O [Example 7],230 nM
12,"NC(=O)c1ccc(Cc2ccc3c(c2)NC(=O)N[C@]3(C#CC2CC2)C(F)(F)F)cc1 [Example 8, (S)-4-((4-(cyclopropylethynyl)-2-oxo-4-(trifluoromethyl)-1,2,3,4-tetrahydroquinazolin-7-yl)meth-yl)benzamide]",262 nM
13,"NS(=O)(=O)c1ccc(Cc2ccc3c(c2)NC(=O)N[C@]3(C#CC2CC2)C(F)(F)F)cc1 [Example 9, (S)-4-((4-(cyclopropylethynyl)-2-oxo-4-(trifluoromethyl)-1,2,3,4-tetrahydroquinazolin-7-yl)meth-yl)benzenesulfonamide]",193 nM
14,"CS(=O)(=O)c1ccc(Cc2cc3c(cc2F)[C@@](C#CC2CC2)(C(F)(F)F)NC(=O)N3)cc1 [Example 10, (S)-4-(cyclopropylethynyl)-6-fluoro-7-(4-(methylsulfonyl)-benzyl)-4-(trifluoromethyl)-3,4-dihydroquinazolin-2(1H)-one]",380 nM
15,"NS(=O)(=O)c1ccc(Cc2cc3c(cc2F)[C@@](C#CC2CC2)(C(F)(F)F)NC(=O)N3)cc1 [Example 11, (S)-4-((4-(cyclopropylethynyl)-6-fluoro-2-oxo-4-(trifluoromethyl)-1,2,3,4-tetrahydroquinazolin-7-yl)methyl)benzenesulfonamide]",257 nM
16,"Nc1cc(Cc2ccc3c(c2)NC(=O)N[C@]3(C#CC2CC2)C(F)(F)F)ccn1 [Example 12, (S)-2-amino-4-((4-(cyclopropylethynyl)-2-oxo-4-(trifluoromethyl)-1,2,3,4-tetrahydroquinazolin-7-yl)methyl)pyridin-1-ium 2,2,2-trifluoroacetate]",132 nM
17,"Nc1cccc(Cc2cc3c(cc2F)[C@@](C#CC2CC2)(C(F)(F)F)NC(=O)N3)n1 [Example 13, (S)-2-amino-6-((4-(cyclopropyl-ethynyl)-6-fluoro-2-oxo-4-(trifluoromethyl)-1,2,3,4-tetra-hydroquinazolin-7-yl)methyl)-pyridin-1-ium 2,2,2-trifluoro-acetate]",130 nM

row,SMILES,EC50
1,"Nc1cc(Cc2cc3c(cc2F)[C@@](C#CC2CC2)(C(F)(F)F)NC(=O)N3)ccn1 [Example 14, (S)-2-amino-4-((4-(cyclopropyl-ethynyl)-6-fluoro-2-oxo-4-(trifluoromethyl)-1,2,3,4-tetra-hydroquinazolin-7-yl)methyl)-pyridin-1-ium 2,2,2-trifluoro-acetate]",121 nM
2,"Nc1ncc(F)c(Cc2ccc3c(c2)NC(=O)N[C@]3(C#CC2CC2)C(F)(F)F)n1 [Example 15, (S)-7-((2-amino-5-fluoropyrimi-din-4-yl)methyl)-4-(cycloprop-ylethynyl)-4-(trifluoromethyl)-3,4-dihydroquinazolin-2(1H)-one]",21.4 nM
3,"Cc1ncc(Cc2ccc3c(c2)NC(=O)N[C@]3(C#CC2CC2)C(F)(F)F)c(=O)[nH]1 [Example 16, (S)-4-(cyclopropylethynl)-7-((2-methyl-6-oxo-1,6-dihydropyrimidin-5-yl)methyl)-4-(trifluoromethyl)-3,4-dihydroquinazolin-2(1H)-one]",153 nM
4,"Cc1nc(C)c(Cc2cc3c(cc2F)[C@@](C#CC2CC2)(C(F)(F)F)NC(=O)N3)c(=O)[nH]1 [Example 17, (S)-4-(cyclopropylethynyl)-7-((2,4-dimethyl-6-oxo-1,6-dihydropyrimidin-5-yl)meth-yl)-6-fluoro-4-(trifluorometh-yl)-3,4-dihydroquinazolin-2(1H)-one]",46 nM
5,"Cc1nc[nH]c(=O)c1Cc1ccc2c(c1)NC(=O)N[C@]2(C#CC1CC1)C(F)(F)F [Example 18, (S)-4-(cyclopropylethynyl)-7-((4-methyl-6-oxo-1,6-dihydro-pyrimidin-5-yl)methyl)-4-(trifluoromethyl)-3,4-dihydro-quinazolin-2(1H)-one]",174 nM
6,"Cc1nc(C)c(Cc2ccc3c(c2)NC(=O)N[C@]3(C#CC2CC2)C(F)(F)F)c(=O)[nH]1 [Example 19, (S)-4-(cyclopropylethynyl)-7-((2,4-dimethyl-6-oxo-1,6-dihydropyrimidin-5-yl)meth-yl)-4-(trifluoromethyl)-3,4-dihydroquinazolin-2(1H)-one]",136 nM
7,"CCN1C(=O)Nc2cc(Cc3c(C)nc(C)[nH]c3=O)ccc2[C@@]1(C#CC1CC1)C(F)(F)F [Example 21, (S)-4-(cyclopropylethynyl)-7-((2,4-dimethyl-6-oxo-1,6-dihydropyrimidin-5-yl)methyl)-3-ethyl-4-(trifluoromethyl)-3,4-dihydroquinazolin-2(1H)-one]",139 nM
8,Cc1nc(C)c(Cc2ccc3c(c2)NC(=O)N(C)[C@]3(C#CC2CC2)C(F)(F)F)c(=O)[nH]1 [Example 22],230 nM
9,"Cc1nc(C)c(Cc2ccc3c(c2)NC(=O)N(C(C)C)[C@]3(C#CC2CC2)C(F)(F)F)c(=O)[nH]1 [Example 23, (S)-4-(cyclopropylethynyl)-7-((2,4-dimethyl-6-oxo-1,6-dihydropyrimidin-5-l)meth-yl)-3-isopropyl-4-(trifluoro-methyl)-3,4-dihydroquin-azolin-2(1H)-one]",151 nM
10,"Cc1nc(C)c(Cc2ccc3c(c2)NC(=O)N(CC(F)F)[C@]3(C#CC2CC2)C(F)(F)F)c(=O)[nH]1 [Example 24, (S)-4-(cyclopropylethynyl)-3-(2,2-difluoroethyl)-7-((2,4-dimethyl-6-oxo-1,6-dihydropyrimidin-5-l)meth-yl)-4-(trifluoromethyl)-3,4-dihydroquinazolin-2(1H)-one]",146 nM
11,"Nc1nccc(Cc2ccc3c(c2)NC(=O)N[C@]3(C#CC2CC2)C(F)(F)F)n1 [Example 25, (S)-7-((2-aminopyrimidin-4-yl)methyl)-4-(cyclopropylethynyl)-4-(trifluoromethyl)-3,4-dihydroquinazolin-2(1H)-one]",45.5 nM
12,"CC(F)(F)[C@@]1(C#CC2CC2)NC(=O)Nc2cc(Cc3ccnc(N)n3)ccc21 [Example 26, (S)-7-((2-aminopyrimidin-4-yl)methyl)-4-(cyclopropyl-ethynyl)-4-(1,1-difluoroethyl)-3,4-dihydroquinazolin-2(1H)-one]",31.2 nM
13,"Cc1cc(Cc2ccc3c(c2)NC(=O)N[C@]3(C#CC2CC2)C(F)(F)F)nc(N)n1 [Example 27, (S)-7-((2-amino-6-methylpyr-imidin-4-yl)methyl)-4-(cyclo-propylethynyl)-4-(trifluoro-methyl)-3,4-dihydroquin-azolin-2(1H)-one]",152 nM
14,"Nc1ncc(Cl)c(Cc2ccc3c(c2)NC(=O)N[C@]3(C#CC2CC2)C(F)(F)F)n1 [Example 28, (S)-7-((2-amino-5-chloropyr-imidin-4-yl)methyl)-4-(cyclo-propylethynyl)-4-(trifluoro-methyl)-3,4-dihydroquinazo-lin-2(1H)-one]",144 nM
15,"Nc1ncc(F)c(Cc2cc3c(cc2F)[C@@](C#CC2CC2)(C(F)(F)F)NC(=O)N3)n1 [Example 29, (S)-7-((2-amino-5-fluoropyr-imidin-4-yl)methyl)-4-(cyclo-propylethynyl)-6-fluoro-4-(trifluoromethyl)-3,4-dihydro-quinazolin-2(1H)-one]",49.7 nM
16,"Nc1nccc(Cc2cc3c(cc2Cl)[C@@](C#CC2CC2)(C(F)(F)F)NC(=O)N3)n1 [Example 31, (S)-7-((2-aminopyrimidin-4-yl)methyl)-6-chloro-4-(cyclo-propylethynyl)-4-(trifluoro-methyl)-3,4-dihydroquinazo-lin-2(1H)-one]",58.7 nM

# Source: patent US12492183B2, “Tetrahydroquinazoline derivatives as selective cytotoxic agents” (Merck Sharp & Dohme LLC, priority 2020, dated 2025)
